Experimental findings from patent US20130296430A1, “COMPOSITIONS AND METHODS FOR TREATING AUTISM AND AUTISM SPECTRUM DISORDER” (priority 2012, published 2013) are described below.

The test system of this series is children with autism. Briefly: 12-week placebo-controlled study of NAC: safety evaluation, adverse events (DOTES). It is filed as in vivo, human. An excerpt: Primary behavioral outcome measures, include, for example, but are not limited to, (a) the Aberrant Behavior Checklist (ABC) irritability subscale; and (b) Dosage Record and Treatment Emergent Symptom Scale (DOTES), which provides information on the presence, frequency and severity of side effects (Guy, W., ECDEU Assessment Manual for Psychopharmacology, Rockville, Md., U.S. Department of Health, Education, and Welfare (1976)). Secondary behavioral outcome measures include, but are not limited to, (a) the Clinical Global Impression (CGI); (b) ABC-Stereotypy subscale; (c) Repetitive Behavior Scale (RBS); and (d) Social responsiveness scale (SRS).
After the screening phase, baseline measures were obtained from subjects continuing to meet inclusion and exclusion criteria. Subjects were then randomized to either placebo or active based on age and gender. As NAC is a nutritional supplement, the quality control is predictably variable and therefore purity is not as stringent as prescription medications. Therefore, in the present study, the stability of the compound was ascertained and the integrity of the active agent was protected by packaging each NAC doses in individual pockets. The active compound and matching placebo were provided by BioAdvantex Pharma, Inc. (Mississauga, Ontario, Canada). […] Subjects randomized to the active drug were initiated at the dose of 900 mg every day for the first 4 weeks, then 900 mg twice daily for 4 weeks and 900 mg three times daily for 4 weeks. (This dose selection was based on previously published studies for other psychiatric conditions (Grant, J. et al., Arch Gen Psychiatry, 66:468-475 (2009); Berk, M. et al., Biol Psychiatry, 64:361-368 (2008); Berk, M. et al., Bio Psychiatry, 64:468-475 (2008)) and the previous experience of our group in studies of children with cystic fibrosis). Alternatively, subjects were initiated at the dose of 900 mg per day, 1,800 mg per day, or 2,700 mg per day of NAC. Alternatively, the subjects were initiated at the dose ranging from 900 mg per day to 2,700 mg per day of NAC.
If a subject could not tolerate a specific dose, s/he would be maintained at the highest tolerated dose. Subjects were evaluated at baseline, week 4, week 8 and week 12. The Aberrant Behavioral Checklist (ABC) (Aman, M. et al., Am J Ment Defic. 89:492-502 (1985)), the Clinical Global Impressions (CGI) (Guy, W., ECDEU Assessment Manual for Psychopharmacology, Rockville, Md., U.S. Department of Health, Education, and Welfare (1976)), and the Dosage Record and Treatment Emergent Symptom Scale (DOTES) (Guy, W., 1976, ECDEU Assessment Manual for Psychopharmacology, Rockville, Md., U.S. Department of Health, Education, and Welfare) were obtained in each visit. Additional secondary measures were obtained at baseline and at week 12 and included the social responsiveness scale (SRS) (Constantino, J. et al., J. Dev Behav Pediatr., 21:2-11 (2000); Constantino, J. et al., J Autism Dev Disord., 33:427-433 (2003)), and the repetitive behavior scale-revised (RBS-R) (Bodfish, J. et al., The Repetitive Behavior Scale: A test manual (1998)).
The following adverse events (AEs) were more frequently reported in the NAC group than the placebo group, but differences were not statistically different (all p>0.100): depressed affect (1 vs. 0), akathisia (1 vs. 0), constipation (3 vs. 2), nausea/vomiting (6 vs. 3), increased appetite (2 vs. 0), diarrhea (3 vs. 1). The following AEs were reported more in the placebo group than the NAC group: excitement/agitation (3 vs. 2), increased motor activity (3 vs. 2), nasal congestion (6 vs. 4), decreased appetite (3 vs. 2), tremor (1 vs. 0), sweating (1 vs. 0), syncope/dizziness (1 vs. 0), increased salivation (2 vs. 0). One subject in each group reported insomnia and stomachache.

[1] abbreviates: NAC group, same in placebo group.

In the case of `CC(=O)N[C@@H](CS)C(=O)O` [NAC, N-acetylcysteine], the “side effects observed, overall” value (12-week study, up to 900 mg three times daily) is recorded as “Minimal side effects”. Besides, where the note is “NAC group, placebo 0, p>0.100”, the “adverse event reported: akathisia (count)” value worked out at 1, the “adverse event reported: depressed affect (count)” value came to 1 and the “adverse event reported: increased appetite (count)” value is on record as 2. Moreover, under “NAC group, placebo 1”, the “adverse event reported: sweating (count)” value worked out at 0, the “adverse event reported: syncope/dizziness (count)” value was determined as 0 and the “adverse event reported: tremor (count)” value turned out to be 0. Besides, the “adverse event reported: diarrhea (count)” value (NAC group, placebo 1, p>0.100) came out at 3. In addition, under “NAC group, placebo 2”, the “adverse event reported: increased salivation (count)” value is given as 0. The “adverse event reported: constipation (count)” value (NAC group, placebo 2, p>0.100) was found to be 3. Where the note is “NAC group, placebo 3”, the “adverse event reported: decreased appetite (count)” value is listed as 2, the “adverse event reported: excitement/agitation (count)” value stood at 2 and the “adverse event reported: increased motor activity (count)” value turned out to be 2. The “adverse event reported: nausea/vomiting (count)” value (NAC group, placebo 3, p>0.100) is listed as 6. Besides, the “adverse event reported: nasal congestion (count)” value (NAC group, placebo 6) is given as 4. Under setting [1], the “adverse event reported: insomnia (subjects)” value is “One” and the “adverse event reported: stomachache (subjects)” value was “One”. Besides, for the setting “active group, later medical evaluation revealed severe constipation”, the “subjects with worsening of baseline agitation and irritability requiring early termination” value is reported as “one”.
